Assay results as given in patent publication US20160237059A1, “HETEROCYCLIC SUBSTITUTED TRIFLUOROMETHYL PYRIMIDINONES AND THEIR USE” (BAYER PHARMA AKTIENGESELLSCHAFT, priority 2013, published 2016).
Structures can show the parent of a compound that is named as a salt.

Key:
human CCR2 = target: T1, human CCR2 (Homo sapiens, UniProt P41597); assay: Functional Ca2+ release test (B-1); format: cell-based; conditions: Chem-1 cell line transfected with human CCR2; 50% inhibition of the MCP-1 effect, MCP-1 at EC50 (about 5 nM); in some cases means of several determinations
T1 construct: host or cells: Chem-1 cell line
T1 sequence (P41597 1-360 isoform P41597-2): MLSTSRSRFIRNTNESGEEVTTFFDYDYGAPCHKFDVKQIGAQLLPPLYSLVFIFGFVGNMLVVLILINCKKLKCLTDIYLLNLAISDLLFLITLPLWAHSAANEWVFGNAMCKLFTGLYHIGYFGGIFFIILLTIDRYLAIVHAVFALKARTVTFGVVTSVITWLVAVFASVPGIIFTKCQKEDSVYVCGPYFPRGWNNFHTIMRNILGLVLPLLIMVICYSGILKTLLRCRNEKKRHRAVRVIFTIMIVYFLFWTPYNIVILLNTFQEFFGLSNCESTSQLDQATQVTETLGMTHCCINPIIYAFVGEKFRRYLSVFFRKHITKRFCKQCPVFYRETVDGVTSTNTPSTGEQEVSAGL
How it was run: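 Inhibition of MCP-1-evoked Ca2+ release was measured over 120 s by fluorescence imaging in Fluo-4-loaded, human CCR2-transfected Chem-1 cells. Compounds, tested in 10-point 1:3.16 series, were added 10 min before agonist at its EC50 (typically about 5 nM). IC50 values were obtained by 4-parameter logistic fitting.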

murine CCR2 = target: T2, murine CCR2 (Mus musculus, UniProt P51683); assay: Functional β-arrestin recruiting test with human MCP-1 (B-2a); format: cell-based; conditions: U2OS β-arrestin cell line transfected with murine CCR2; agonist human MCP-1 at EC50 (about 3 nM); in some cases means of several determinations
T2 construct: host or cells: U2OS β-arrestin cell line
Description: The antagonistic action of test substances on CCR2 was determined in a β-arrestin test. The PathHunter β-arrestin GPCR test system (DiscoveRx Corporation, Ltd.) is a cell-based functional method for detecting binding of β-arrestin to an activated receptor. The molecular basis is a […] complementation measured by the enzymatic conversion of a chemiluminescent substrate. The test cell used was a U2OS β-arrestin cell line transfected with murine CCR2 (93-0543C3, DiscoveRx Corporation, Ltd.).
The test substances were dissolved in dimethyl sulphoxide (DMSO) at a concentration of 10 mM and serially diluted with DMSO in steps of 1:3.16 for a 10-point dose/activity analysis. According to the desired test concentrations, the substances were pre-diluted in Tyrode with 2 mM CaCl2 and 0.05% BSA.
The cells, cultivated in MEM Eagle (supplemented with 10% FCS, 50 U/ml of penicillin, 50 μg/ml of streptomycin, 250 μg/ml of hygromycin and 500 μg/ml of geniticin), were sown at 2000 cells/25 μl in 384 well, μCLEAR/black cell culture plates from Greiner (#781092) and incubated at 37° C. for 24 h. The sowing medium consisted of Opti-MEM (supplemented with 1% FCS, 50 U/ml of penicillin and 50 μg/ml of streptomycin). The cells were pre-incubated for 10 min with 10 μl of the test substances diluted in buffer, and 10 μl of agonist solution [human MCP-1 (PeproTech, #300-04) in Tyrode with 0.05% BSA) were then added. The human MCP-1 was employed at the concentration which corresponds to the EC50 which had been determined in a preliminary test (usually about 3 nM). After 90 min of incubation at 37° C., the solution was removed, and recruitment of β-arrestin to CCR2 was detected with the aid of the PathHunter detection reagent (93-001, DiscoveRx Corporation, Ltd.) according to the instructions of the manufacturer. Luminescence was measured after an incubation time of 60 min using a proprietary luminescence imaging measuring instrument. The molar concentration of the test substance which caused 50% inhibition of the MCP-1 effect (IC50) was determined using a 4-parameter logistic function (Hill function).

T2 sequence (P51683 whole entry): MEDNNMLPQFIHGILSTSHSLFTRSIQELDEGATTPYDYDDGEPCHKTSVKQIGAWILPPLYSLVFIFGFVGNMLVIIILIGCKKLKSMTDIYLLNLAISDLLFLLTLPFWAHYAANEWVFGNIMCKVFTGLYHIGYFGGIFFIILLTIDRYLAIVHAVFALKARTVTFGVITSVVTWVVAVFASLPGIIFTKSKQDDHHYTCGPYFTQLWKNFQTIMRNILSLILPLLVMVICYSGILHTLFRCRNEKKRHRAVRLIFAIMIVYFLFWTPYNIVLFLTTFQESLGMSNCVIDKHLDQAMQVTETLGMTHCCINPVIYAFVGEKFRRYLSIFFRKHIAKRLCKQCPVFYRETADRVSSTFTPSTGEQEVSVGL

Cc1ccc(-c2nc(C(F)(F)F)c(Cc3ccc(Cl)c(Cl)c3)c(=O)[nH]2)nc1 [Example 19]
IC50 (human CCR2): 9.7 nM | IC50 (murine CCR2): 300 nM

O=c1[nH]c(-c2cccc(Cl)n2)nc(C(F)(F)F)c1Cc1ccc(Cl)c(Cl)c1 [Example 20, 2-(6-chloropyridin-2-yl)-5-(3,4-dichlorobenzyl)-6-(trifluoromethyl)pyrimidin-4(3H)-one]
IC50 (human CCR2): 12 nM | IC50 (murine CCR2): 380 nM

O=c1[nH]c(-c2ncc(C(F)(F)F)cc2Cl)nc(C(F)(F)F)c1Cc1ccc(Cl)c(Cl)c1 [Example 21, 2-[3-chloro-5-(trifluoromethyl)pyridin-2-yl]-5-(3,4-dichlorobenzyl)-6-(trifluoromethyl)pyrimidin-4(3H)-one]
IC50 (human CCR2): 28 nM | IC50 (murine CCR2): 230 nM

O=c1[nH]c(-c2ccc(Cl)cn2)nc(C(F)(F)F)c1Cc1ccc(Cl)c(Cl)c1 [Example 22, 2-(5-chloropyridin-2-yl)-5-(3,4-dichlorobenzyl)-6-(trifluoromethyl)pyrimidin-4(3H)-one]
IC50 (human CCR2): 7 nM | IC50 (murine CCR2): 400 nM

Cc1cccc(-c2nc(C(F)(F)F)c(Cc3ccc(Cl)c(Cl)c3)c(=O)[nH]2)n1 [Example 25, 5-(3,4-dichlorobenzyl)-2-(6-methylpyridin-2-yl)-6-(trifluoromethyl)pyrimidin-4(3H)-one]
IC50 (human CCR2): 33 nM | IC50 (murine CCR2): 790 nM

COc1cnccc1-c1nc(C(F)(F)F)c(Cc2ccc(Cl)c(Cl)c2)c(=O)[nH]1 [Example 26]
IC50 (human CCR2): 3.2 nM | IC50 (murine CCR2): 190 nM

O=c1[nH]c(-c2cccnc2)nc(C(F)(F)F)c1Cc1ccc(Cl)c(Cl)c1 [Example 27, 5-(3,4-dichlorobenzyl)-2-(pyridin-3-yl)-6-(trifluoromethyl)pyrimidin-4(3H)-one]
IC50 (human CCR2): 35 nM | IC50 (murine CCR2): 480 nM

O=c1[nH]c(-c2ccncc2)nc(C(F)(F)F)c1Cc1ccc(Cl)c(Cl)c1 [Example 28, 5-(3,4-dichlorobenzyl)-2-(pyridin-4-yl)-6-(trifluoromethyl)pyrimidin-4(3H)-one]
IC50 (human CCR2): 49 nM | IC50 (murine CCR2): 1000 nM

COc1cc(-c2nc(C(F)(F)F)c(Cc3ccc(Cl)c(Cl)c3)c(=O)[nH]2)ccn1 [Example 29, 5-(3,4-dichlorobenzyl)-2-(2-methoxypyridin-4-yl)-6-(trifluoromethyl)pyrimidin-4(3H)-one]
IC50 (human CCR2): 92 nM | IC50 (murine CCR2): 2600 nM

O=c1[nH]c(-c2cccc(O)n2)nc(C(F)(F)F)c1Oc1ccc(Cl)c(C(F)(F)F)c1 [Example 30, 5-[4-chloro-3-(trifluoromethyl)phenoxy]-2-(6-hydroxypyridin-2-yl)-6-(trifluoromethyl)pyrimidin-4(3H)-one]
IC50 (human CCR2): 140 nM | IC50 (murine CCR2): 530 nM

O=c1[nH]c(-c2cccc(O)n2)nc(C(F)(F)F)c1Oc1ccc(Cl)c(Cl)c1 [Example 31, 5-(3,4-dichlorophenoxy)-2-(6-hydroxypyridin-2-yl)-6-(trifluoromethyl)pyrimidin-4(3H)-one]
IC50 (human CCR2): 150 nM | IC50 (murine CCR2): 1400 nM

O=c1[nH]c(-c2cc(O)ccn2)nc(C(F)(F)F)c1Oc1ccc(Cl)c(Cl)c1 [Example 32, 5-(3,4-dichlorophenoxy)-2-(4-hydroxypyridin-2-yl)-6-(trifluoromethyl)pyrimidin-4(3H)-one]
IC50 (human CCR2): 51 nM | IC50 (murine CCR2): 1100 nM

O=c1[nH]c(-c2cc(O)ccn2)nc(C(F)(F)F)c1Oc1ccc(Cl)c(C(F)(F)F)c1 [Example 33, 5-[4-chloro-3-(trifluoromethyl)phenoxy]-2-(4-hydroxypyridin-2-yl)-6-(trifluoromethyl)pyrimidin-4(3H)-one]
IC50 (human CCR2): 46 nM | IC50 (murine CCR2): 650 nM

O=c1[nH]c(-c2ncccc2F)nc(C(F)(F)F)c1Cc1ccc(Cl)c(C(F)(F)F)c1 [Example 34, 5-[4-chloro-3-(trifluoromethyl)benzyl]-2-(3-fluoropyridin-2-yl)-6-(trifluoromethyl)pyrimidin4(3H)-one]
IC50 (human CCR2): 2.7 nM | IC50 (murine CCR2): 110 nM

O=c1[nH]c(-c2cccc(Cl)n2)nc(C(F)(F)F)c1Oc1ccc(Cl)c(C(F)(F)F)c1 [Example 36, 2-(6-chloropyridin-2-yl)-5-[4-chloro-3-(trifluoromethyl)phenoxy]-6-(trifluoromethyl)pyrimidin-4(3H)-one]
IC50 (human CCR2): 6.2 nM | IC50 (murine CCR2): 140 nM

Nc1cccc(-c2nc(C(F)(F)F)c(Oc3ccc(Cl)c(Cl)c3)c(=O)[nH]2)n1 [Example 43, 2-(6-aminopyridin-2-yl)-5-(3,4-dichlorophenoxy)-6-(trifluoromethyl)pyrimidin-4(3H)-one]
IC50 (human CCR2): 6.6 nM | IC50 (murine CCR2): 220 nM

Nc1oc(=O)sc1-c1nc(C(F)(F)F)c(Cc2ccc(Cl)c(Cl)c2)c(=O)[nH]1 [Example 46, 2-(5-Amino-2-oxo-1,3-oxathiol-4-yl)-5-(3,4-dichlorobenzyl)-6-(trifluoromethyl)pyrimidin-4(3H)-one]
IC50 (human CCR2): 59 nM | IC50 (murine CCR2): 230 nM

Nc1ncnn1-c1nc(C(F)(F)F)c(Oc2ccc(Cl)c(Cl)c2)c(=O)[nH]1 [Example 48, 2-(5-Amino-1H-1,2,4-triazol-1-yl)-5-(3,4-dichlorophenoxy)-6-(trifluoromethyl)pyrimidin-4(3H)-one]
IC50 (human CCR2): 4.2 nM | IC50 (murine CCR2): 30000 nM

O=c1[nH]c(-c2cc[nH]n2)nc(C(F)(F)F)c1Cc1ccc(Cl)c(Cl)c1 [Example 50, 5-(3,4-dichlorobenzyl)-2-(1H-pyrazol-3-yl)-6-(trifluoromethyl)pyrimidin-4(3H)-one]
IC50 (human CCR2): 0.2 nM | IC50 (murine CCR2): 4.7 nM

Cc1cc(-c2nc(C(F)(F)F)c(Cc3ccc(Cl)c(Cl)c3)c(=O)[nH]2)nn1C [Example 55, 5-(3,4-dichlorobenzyl)-2-(1,5-dimethyl-1H-pyrazol-3-yl)-6-(trifluoromethyl)pyrimidin-4(3H)-one]
IC50 (human CCR2): 4.4 nM | IC50 (murine CCR2): 110 nM

Cn1nccc1-c1nc(C(F)(F)F)c(Oc2ccc(Cl)c(Cl)c2)c(=O)[nH]1 [Example 56, 5-(3,4-dichlorophenoxy)-2-(1-methyl-1H-pyrazol-5-yl)-6-(trifluoromethyl)pyrimidin-4(3H)-one]
IC50 (human CCR2): 38 nM | IC50 (murine CCR2): 900 nM

Cc1cc(C)n(-c2nc(C(F)(F)F)c(Cc3ccc(Cl)c(Cl)c3)c(=O)[nH]2)n1 [Example 57, 5-(3,4-dichlorobenzyl)-2-(3,5-dimethyl-1H-pyrazol-1-yl)-6-(trifluoromethyl)pyrimidin-4(3H)-one]
IC50 (human CCR2): 83 nM | IC50 (murine CCR2): 1300 nM

Nc1[nH]ncc1-c1nc(C(F)(F)F)c(Cc2ccc(Cl)c(Cl)c2)c(=O)[nH]1 [Example 60, 2-(5-amino-1H-pyrazol-4-yl)-5-(3,4-dichlorobenzyl)-6-(trifluoromethyl)pyrimidin-4(3H)-one]
IC50 (human CCR2): 91 nM | IC50 (murine CCR2): 180 nM

Cn1ncc(-c2nc(C(F)(F)F)c(Cc3ccc(Cl)c(Cl)c3)c(=O)[nH]2)c1N [Example 61, 2-(5-amino-1-methyl-1H-pyrazol-4-yl)-5-(3,4-dichlorobenzyl)-6-(trifluoromethyl)pyrimidin-4(3H)-one]
IC50 (human CCR2): 36 nM | IC50 (murine CCR2): 220 nM

Nc1[nH]ncc1-c1nc(C(F)(F)F)c(Oc2ccc(Cl)c(Cl)c2)c(=O)[nH]1 [Example 62, 2-(5-amino-1H-pyrazol-4-yl)-5-(3,4-dichlorophenoxy)-6-(trifluoromethyl)pyrimidin-4(3H)-one trifluoroacetate]
IC50 (human CCR2): 110 nM | IC50 (murine CCR2): 140 nM

O=c1[nH]c(-c2cn[nH]c2)nc(C(F)(F)F)c1Cc1ccc(Cl)c(Cl)c1 [Example 63, 5-(3,4-dichlorobenzyl)-2-(1H-pyrazol-4-yl)-6-(trifluoromethyl)pyrimidin-4(3H)-one]
IC50 (human CCR2): 5.5 nM | IC50 (murine CCR2): 100 nM
